Where two headings read alike, the source gives them in different places.
What was measured:
[1] = target: T1, human adenosine A2b receptor (Homo sapiens, UniProt P29275); experiment: Adenosine A2b receptor reporter gene assay (luciferase, CHO-A2b cells); assay type: cell-based; conditions: CHO cells transfected with human A2b receptor and pCRE-LUCI; NECA as agonist; KB from shift of the curve at 100 nM or 1 μM antagonist
T1 construct: expressed in transfected cells; host or cells: CHO cells, co-transfected with the pCRE-LUCI reporter plasmid
T1 sequence (P29275 1-332): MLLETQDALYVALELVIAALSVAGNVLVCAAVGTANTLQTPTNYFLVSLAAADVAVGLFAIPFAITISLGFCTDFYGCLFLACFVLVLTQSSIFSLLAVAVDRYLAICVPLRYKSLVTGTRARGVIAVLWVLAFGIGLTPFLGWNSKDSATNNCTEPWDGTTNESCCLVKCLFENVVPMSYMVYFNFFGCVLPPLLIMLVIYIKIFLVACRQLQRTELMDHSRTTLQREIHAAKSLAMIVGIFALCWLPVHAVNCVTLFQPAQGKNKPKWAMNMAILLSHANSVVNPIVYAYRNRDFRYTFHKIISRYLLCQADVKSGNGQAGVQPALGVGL
Description: Adenosine A2b Receptor Reporter Gene Assay a) Culturing of Chinese Hamster Ovary (CHO) A2b Cell Line
CHO cells transfected with a Luciferase-expressing reporter plasmid (pCRE-LUCI) and with a plasmid carrying the human adenosine A2b receptor structural gene (pA2bRCV) are routinely cultured in Dulbecco's Modified Eagle Medium (DMEM)—supplemented with 10% v/v fetal calf serum (FCS), 2 mM L-glutamine, 0.4 mg/ml L-proline, 1 nM sodium selenite, 0.5 mg/ml Hygromycin B and 1 mg/ml Geneticin—at 37° C., 5% CO2 and 100% humidity. The cells are left to grow to confluence for 4–5 days. The cells obtained are passaged using trypsin/EDTA and split at a ratio of 1 in 5. […]
b) Preparation of Cells for Assay
Prior to the assay, the CHO-A2b cells are plated onto white 96-well View Plate tissue culture plates (Packard) at a density of 50,000 cells per well in […] of DMEM, and the plates are incubated at 37° C., 5% CO2 and 100% humidity. […]
c) Preparation of Reference and Test Compounds
10 mM solutions of the reference compound, Xanthine Amine Cogener (XAC), and the test compound in dimethyl sulfoxide (DMSO) are prepared. The solutions are further diluted with DMSO to 100 μM, then diluted to 10 μM, and finally to 250 nM or 2.5 μM with Assay Buffer (DMEM Phenol Red-free tissue culture media supplemented with 10 μM Rolipram and 10 U/ml adenosine deaminase (ADA). The resulting solutions (40 μl) are added to the cells in the appropriate wells, the final concentration per well being 100 nM or 1 μM, and the plates are incubated at 37° C., 5% CO2 and 100% humidity. […]
d) Luciferase Reporter Gene Assay
5′-N-ethylcarboxamidoadenosine (NECA), an adenosine A2b agonist, is prepared as a […] solution in DMSO and then diluted to 100 μM with Assay Buffer. This solution is serially diluted in Assay Buffer to give a series of 10 NECA concentrations from 100 to 0.01 μM. 10 μl portions of the resulting NECA solutions are added to the mixtures of CHO-A2b cells and reference or test compound solutions prepared as described above (preincubated for 30 minutes), final concentrations ranging from 10 to 0.0005 μM per well. The cells are incubated at 37° C., 5% CO2 and 100% humidity for 3 hours to induce release of cAMP, which then binds to cAMP binding protein (CBP) and the resulting complex interacts with the reporter plasmid to express Luciferase. 100 μl of Steady-Glo, a Luciferase assay substrate from Promega, is added to all wells to lyse the cells and generate luminescence in proportion to the amount of Lucifrease produced. The plates are left for a minimum of 5 minutes before being read on the luminescence program of a Topcount NXT microplate scintillation counter (ex Packard). Concentration—response curves are plotted from the luminescence data using Activitybase software and KB values for the antagonists under test are calculated from the shifts of the curve at a particular concentration (KB=[antagonist]/(concentration ratio−1)

adenosine A3 receptor = target: T2, adenosine A3 receptor (Homo sapiens, UniProt P0DMS8)
T2 sequence (P0DMS8 1-318): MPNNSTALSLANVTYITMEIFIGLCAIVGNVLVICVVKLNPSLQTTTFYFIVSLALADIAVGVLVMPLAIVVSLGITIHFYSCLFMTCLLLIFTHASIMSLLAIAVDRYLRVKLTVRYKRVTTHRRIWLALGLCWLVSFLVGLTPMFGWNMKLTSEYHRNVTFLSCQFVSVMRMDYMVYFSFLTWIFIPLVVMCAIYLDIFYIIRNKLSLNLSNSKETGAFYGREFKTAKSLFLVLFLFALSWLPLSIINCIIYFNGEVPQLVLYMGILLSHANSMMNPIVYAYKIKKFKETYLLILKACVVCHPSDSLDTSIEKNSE

[2] = read-out: KI value in adenosine A3 receptor assay, assay as described in WO 99/64418

Molecule | Kb [1] [nM] | melting point [°C] | Ki (adenosine A3 receptor; [2]) [nM] | Ki (adenosine A3 receptor) [nM]
COc1ccc(C(=O)Nc2nc(-c3cccc(C#N)c3)c(-n3cncn3)s2)cc1 [Example 12, N-[4-(3-Cyano-phenyl)-5-[1,2,4]triazol-1-yl-thiazol-2-yl]-4-methoxy-benzamide] | 31 | 292 to 294 |  | 
Cc1cccc(Nc2nc(-c3cccc(C#N)c3)c(-n3cncn3)s2)n1 [Example 15, 3-[2-(6-Methyl-pyridin-2-ylamino)-5-[1,2,4]triazol-1-yl-thiazol-4-yl]-benzonitrile] | 20 |  |  | 
N#Cc1cccc(-c2nc(Nc3cnccn3)sc2-n2cncn2)c1 [Example 27, (3-[2-(Pyrazin-2-ylamino)-5-[1,2,4]triazol-1-yl-thiazol-4-yl]-benzonitrile)] | 10 |  | 16 | 
Cn1cccc1C(=O)Nc1nc(-c2cccc(C#N)c2)c(-n2cncn2)s1 [Example 36, 1-Methyl-1H-pyrrole-2-carboxylic Acid [4-(3-cyano-phenyl)-5-[1,2,4]triazol-1-yl-thiazol-2-yl]-amide] | 17 | 245 to 247 |  | 
COCCOc1cncc(Nc2nc(-c3cccc(C#N)c3)c(-n3cncn3)s2)n1 [Example 38] | 12 |  |  | 4
(3-[5-(2-Methyl-imidazol-1-yl)-2-(pyrazin-2-ylamino)-triazol-4-yl]-benzonitrile) [Example 35] | 4 |  | 10 | 
